The text below walks through data of patent US5328900A, “Anti-thrombotic peptide and pseudopeptide derivatives” (Rhone-Poulenc Rorer Pharmaceuticals Inc., priority 1992, dated 1994).

Where a SMILES comes first, the peptide text is derived from it. [ ]: non-standard residue; d: D form. Aze = O=C(O)[C@@H]1CCN1; Inp = O=C(O)C1CCNCC1

The target in assay [1] is T1, fibrinogen binding to thrombin-stimulated platelets (Homo sapiens, UniProt P05106+P08514).
T1 construct: endogenous in cells; host or cells: washed platelets stimulated with human alpha-thrombin
The assay can be described thus: Inhibition of radiolabeled (125I) fibrinogen binding assay. The protocol: I. Inhibition of Radiolabeled (^125 I) Fibrinogen Binding Assay, which is essentially based on the method described in Proc. Natl. Acad. Sci. USA Vol. 83, pp. 5708-5712, August 1986, and is as follows.
Platelets are washed free of plasma constituents by the albumin density-gradient technique. In each experimental mixture platelets in modified Tyrode's buffer are stimulated with human α-thrombin at 22°-25° C. for 10 minutes (3.125×10" platelets per liter and thrombin at […]). Hirudin is then added at a 25-fold excess for 5 minutes before addition of the radiolabeled ligand and any competing ligand. After these additions, the final platelet count in the mixture is 1×10"/liter. After incubation for an additional 30 minutes at 22°-25° C., bound and free ligand are separated by centrifuging 50 μl of the mixture through 300 μl of 20% sucrose at 12,000×g for 4 minutes. The platelet pellet is then separated from the rest of the mixture to determine platelet-bound radioactivity. Nonspecific binding is measured in mixtures containing an excess of unlabeled ligand. When binding curves are analyzed by Scatchard analysis, nonspecific binding is derived as a fitted parameter from the binding isotherm by means of a computerized program. […]

Another assay concerns Human platelets. The assay is described as follows: Inhibition of fibrinogen-mediated platelet aggregation. It counts as cell-based. Conditions: for IC50: thrombin-activated human platelets, rate of aggregation. The protocol: II. Inhibition of Fibrinogen-Mediated Platelet Aggregation, which is essentially based on the method described in Blood, Vol. 66, No. 4, October 1985, pp. 946-952, and is as follows.
Human platelets were isolated from freshly drawn whole blood and were suspended in 0.14 mol/L NaCl, 2.7 mmol/L […], 12 mmol/L NaHCO3, 0.42 mmol/L Na2 HPO4, 0.55 mmol/L glucose, and 5 mmol/L Hepes, pH 7.35 at 2×10^8 platelets/ml. The suspension was incubated at 37° C. An aliquot of 0.4 ml of platelet suspension was activated by human thrombin at a final concentration of 2 μg/ml of thrombin for one minute. After one minute the reaction was stopped by a thrombin inhibitor. Serial dilution of the compound being tested was then added to the activated platelet, the reaction was allowed to proceed for one minute, followed by the addition of human fibrinogen at a final concentration of […] of fibrinogen. Platelet aggregation was then recorded by an aggregometer. Rate of aggregation was used to calculate IC50.

T1 sequence (P08514 32-887 limits assumed): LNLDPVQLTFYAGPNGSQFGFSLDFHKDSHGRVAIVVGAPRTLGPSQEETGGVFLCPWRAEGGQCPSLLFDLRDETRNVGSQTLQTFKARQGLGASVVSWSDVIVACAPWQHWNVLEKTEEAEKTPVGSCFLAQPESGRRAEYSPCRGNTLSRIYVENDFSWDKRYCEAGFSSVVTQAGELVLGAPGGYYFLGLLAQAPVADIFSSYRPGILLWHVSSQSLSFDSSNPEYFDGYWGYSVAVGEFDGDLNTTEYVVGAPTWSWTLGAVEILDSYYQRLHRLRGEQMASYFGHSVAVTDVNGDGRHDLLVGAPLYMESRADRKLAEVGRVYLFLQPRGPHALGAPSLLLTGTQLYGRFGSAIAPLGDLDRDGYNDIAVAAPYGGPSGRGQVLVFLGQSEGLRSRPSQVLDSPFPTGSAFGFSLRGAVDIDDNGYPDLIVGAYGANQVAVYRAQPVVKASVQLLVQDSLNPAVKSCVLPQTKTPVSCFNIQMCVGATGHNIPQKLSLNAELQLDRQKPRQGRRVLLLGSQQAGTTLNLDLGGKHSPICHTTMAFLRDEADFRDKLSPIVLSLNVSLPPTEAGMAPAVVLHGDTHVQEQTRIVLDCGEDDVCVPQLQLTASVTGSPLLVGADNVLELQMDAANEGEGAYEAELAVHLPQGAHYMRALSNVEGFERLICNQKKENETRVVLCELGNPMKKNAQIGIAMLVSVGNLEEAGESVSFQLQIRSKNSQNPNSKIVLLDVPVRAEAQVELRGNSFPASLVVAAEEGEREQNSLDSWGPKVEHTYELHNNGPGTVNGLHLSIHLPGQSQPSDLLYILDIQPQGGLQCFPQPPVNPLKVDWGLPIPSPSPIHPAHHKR
T1 sequence (P08514 891-1039 partner limits assumed): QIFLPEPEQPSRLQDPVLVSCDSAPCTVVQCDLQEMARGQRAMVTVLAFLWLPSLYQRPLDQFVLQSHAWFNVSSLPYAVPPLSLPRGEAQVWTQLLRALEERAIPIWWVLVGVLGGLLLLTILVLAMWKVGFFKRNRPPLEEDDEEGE
T1 sequence (P05106 27-788): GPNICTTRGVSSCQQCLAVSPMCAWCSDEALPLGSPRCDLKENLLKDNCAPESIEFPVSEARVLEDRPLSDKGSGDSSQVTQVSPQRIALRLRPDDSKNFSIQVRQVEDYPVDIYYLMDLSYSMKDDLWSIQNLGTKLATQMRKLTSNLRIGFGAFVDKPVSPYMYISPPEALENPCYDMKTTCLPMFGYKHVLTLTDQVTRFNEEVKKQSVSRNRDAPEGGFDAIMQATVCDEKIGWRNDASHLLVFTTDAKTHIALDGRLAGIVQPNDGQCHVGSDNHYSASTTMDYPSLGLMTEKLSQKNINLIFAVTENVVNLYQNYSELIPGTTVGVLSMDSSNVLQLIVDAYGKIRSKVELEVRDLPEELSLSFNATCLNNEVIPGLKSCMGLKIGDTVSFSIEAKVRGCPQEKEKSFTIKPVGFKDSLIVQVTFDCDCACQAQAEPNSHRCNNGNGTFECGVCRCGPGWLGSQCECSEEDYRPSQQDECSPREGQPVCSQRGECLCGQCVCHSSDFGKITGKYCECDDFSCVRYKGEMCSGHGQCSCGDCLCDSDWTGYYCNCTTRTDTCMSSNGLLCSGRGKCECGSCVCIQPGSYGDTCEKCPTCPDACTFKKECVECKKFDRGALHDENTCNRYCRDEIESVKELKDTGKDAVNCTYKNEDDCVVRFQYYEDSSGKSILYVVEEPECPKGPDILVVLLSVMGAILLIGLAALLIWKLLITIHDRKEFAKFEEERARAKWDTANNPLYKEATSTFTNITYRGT

As for `CC(C)[C@H](NC(=O)[C@H](CC(=O)O)NC(=O)[C@@H]1CCN1C(=O)C1CCN(C(=N)N)CC1)C(=O)O` [N-[2(S)-1-(amidinopiperidin-4-yl-carbonyl)-azetidin-2-yl-carbonyl]-L-aspartyl-L-valine], the “Inhibition of 125I-fibrinogen binding, extent at 25 μM” value in assay [1] (25 μM) turned out to be 15%. For the same compound, in the assay on Human platelets, the “Inhibition of Fibrinogen Mediated Platelet Aggregation % inhibition at 25 μM” value is given as 15% and the half-inhibitory concentration (IC50) is more than 200 µM.

In assay [1] (thrombin-stimulated washed platelets, 125I-fibrinogen 0.176 μmol/liter), `CC(C)[C@H](NC(=O)[C@H](CC(=O)O)NC(=O)[C@@H]1CCN1C(=O)C1CCNCC1)C(=O)O` [N-[2(S)-1-(piperidin-4-yl-carbonyl)azetidin-2-yl-carbonyl]-L-aspartyl-L-valine] (H-[Inp][Aze]DV-OH) displayed an IC50 of more than 64 µM. Also, in the assay with Human platelets, the “Inhibition of Fibrinogen Mediated Platelet Aggregation % inhibition at 25 μM” value is reported as 47% and the IC50 is 29.6 µM.
